# How the values were obtained:
# Test in all cases: Bioactivity: growth inhibition / minimal inhibitory concentration in liquid culture
# Type in all cases: cell-based
# [1] = tested on: Bacillus subtilis ATCC 6633; conditions: ATCC6633, 48 h, B. subtilis ATCC 6633, liquid 2x TY, microtiterplates incubated 2 days at 25 degrees Celsius, 550 rpm
# Source text: (§1) The adipoyl-7-amino-3-carbamoyloxymethyl-3-cephem-4-carboxylic acid prepared according to Example 3 was used to evaluate its activity versus different bacteria. Bacteria used were: Escherichia coli ESS [xxxref komt nogxx], Micrococcus luteus DSM 348 [Andrade, A. C., Van Nistelrooy, J. G. M., Peery, R. B., Skatrud, P. L., De Waard, M. A., 2000, The role of ABC transporters from Aspergillus nidulans in protection against cytotoxic agents and in antibiotic production] and Bacillus subtilis ATCC 6633 [xxxref komt nogxx] The bacteria were grown overnight in liquid 2× TY [xxxref komt nogxx] at 37 degrees and 280 rotations per minute and subsequently diluted 1000-fold in fresh medium. Two ml deep-well microtiterplates were inoculated with 1 ml of the diluted bacterial cultures and different concentrations of adipoyl-7-amino-3-carbamoyloxymethyl-3-cephem-4-carboxylic acid (adipoyl-ACCA or Ad-ACCA) were added to individual wells wells. As control several other active and less-active b-lactams were used: 6-APA, Adipoyl-6-APA, 7-ADCA, adipoyl-7-ADCA, 7-ACA, cephalosporinC and cefuroxime. The microtiterplates were incubated for 2 days at 25 degrees Celsius and 550 rotations per minute.
# (§2) The results for growth inhibition by adipoyl-7-ADCA, adipoyl-ACCA and cefuroxime are summarized in FIGS. 14 (B. subtilis), 15 (E. coli) and 16 (M. luteus).
# (§3) The minimal inhibitory concentrations of adipoyl-7-amino-3-carbamoyloxymethyl-3-cephem-4-carboxylic acid for B. subtilis ATCC 6633, E. coli ESS and M. luteus DSM 348 were 4, 7 and 7 uM, respectively.
# [2] = tested on: Micrococcus luteus DSM 348; conditions: DSM348, 48 h, M. luteus DSM 348, liquid 2x TY, microtiterplates incubated 2 days at 25 degrees Celsius, 550 rpm
# Source text: as §1, §2, §3
# Escherichia coli ESS = conditions: 48 h, E. coli ESS, liquid 2x TY, microtiterplates incubated 2 days at 25 degrees Celsius, 550 rpm
# Source text: as §1, §2, §3
smiles,measurement,setting,value
NC(=O)OCC1=C(C(=O)O)N2C(=O)[C@@H](NC(=O)CCCCC(=O)O)[C@H]2SC1 [adipoyl-7-amino-3-carbamoyloxymethyl-3-cephem-4-carboxylic acid],MIC,[1],4 µM
same,MIC,[2],7 µM
same,MIC,Escherichia coli ESS,7 µM

# From patent US20070093465A1, “Cephem compound” (priority 2003, published 2007)
